Data as given in paper PMC4313372, “MHJ_0461 is a multifunctional leucine aminopeptidase on the surface of Mycoplasma hyopneumoniae” (Open Biology, 2015).

Key:
rMHJ_0461 [1] = target: T1, rMHJ_0461 (Mesomycoplasma hyopneumoniae, UniProt Q4A9M4); set-up: gene pepA; conditions: 50 uM substrate, 5 mM Mn2+, pH 7.2, 37 C
rMHJ_0461 [2] = target: T1, rMHJ_0461; test: fluorogenic aminopeptidase assay, leucine-AMC, […] min preincubation; assay type: biochemical; set-up: gene pepA; multimers of about 500 and 800 kDa; conditions: read-out: % inhibition at 1 mM
[3] = target: recombinant MHJ_0461 (Mycoplasma hyopneumoniae strain J); test: native gel or EMSA; Blue Native PAGE of purified rMHJ_0461; complexes identified by LC-MS/MS of tryptic peptides

Compound	inhibition at 1000 µM (rMHJ_0461 [2]) [%]	other results
CSCC[C@H](N)C(=O)Nc1ccc2c(C)cc(=O)oc2c1 [methionine-AMC]	–	fluorogenic AMC release assay (rMHJ_0461 [1]): leucine > methionine > phenylalanine > arginine > alanine > isoleucine > glycine > valine
CC(C)C[C@@H](N)[C@H](O)C(=O)N[C@H](C(=O)N[C@H](C(=O)N[C@@H](CC(=O)O)C(=O)O)C(C)C)C(C)C [amastatin]	69	–
CC(C)C[C@H](NC(=O)[C@@H](O)[C@H](N)Cc1ccccc1)C(=O)O [bestatin]	99	–
recombinant MHJ_0461 (enzyme)	–	stoichiometry N [3]: > 10 subunits
